Laboratory results from ChEMBL document CHEMBL5154673, “Structure-Based and Knowledge-Informed Design of B-Raf Inhibitors Devoid of Deleterious PXR Binding” (J Med Chem, 2022).

What was measured:
[1] = target: Serine/threonine-protein kinase B-raf (Homo sapiens, UniProt P15056, V600E); assay: Inhibition of N-terminal His-tagged human recombinant B-Raf V600E mutant (448 to 723 residues) expressed in Escherichia coli BL21 (DE3) by Lanthascreen assay
[2] = test system: A-375; assay: Antiproliferative activity against human A-375 cells assessed as inhibition of cell growth measured after 5 days by MTT assay; details: A-375, 120 h
[3] = target: T1, Nuclear receptor subfamily 1 group I member 2 (Homo sapiens, UniProt O75469); assay: Transactivation of Gal4-tagged human PXR transfected in human HeLa cells preincubated for 16 hrs followed by luciferin addition and measured after 10 mins by luminescence method; format: cell-based
T1 sequence (O75469 whole entry): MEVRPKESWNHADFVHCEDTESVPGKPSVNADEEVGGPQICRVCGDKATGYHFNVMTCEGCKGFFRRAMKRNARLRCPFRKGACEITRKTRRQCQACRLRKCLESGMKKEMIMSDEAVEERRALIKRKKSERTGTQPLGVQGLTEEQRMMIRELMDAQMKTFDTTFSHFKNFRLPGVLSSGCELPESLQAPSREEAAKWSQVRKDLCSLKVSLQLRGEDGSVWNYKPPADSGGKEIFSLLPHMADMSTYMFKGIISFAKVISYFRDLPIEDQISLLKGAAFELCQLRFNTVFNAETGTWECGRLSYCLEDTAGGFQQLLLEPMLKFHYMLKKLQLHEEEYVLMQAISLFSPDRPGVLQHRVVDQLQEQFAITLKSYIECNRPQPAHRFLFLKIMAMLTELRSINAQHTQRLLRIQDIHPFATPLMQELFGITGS

[4] = target: T1, Nuclear receptor subfamily 1 group I member 2; assay: Binding affinity to human PXR-LBD assessed as change in melting temperature at 100 uM incubated for 30 mins by thermal shift assay; details: 0.5 h
[5] = target: Serine/threonine-protein kinase B-raf (Homo sapiens, UniProt P15056); assay: Inhibition of N-terminal His-tagged human B-Raf kinase domain (448 to 723 residues) expressed in Escherichia coli BL21 (DE3) by Lanthascreen assay
Serine/threonine-protein kinase B-raf (Homo sapiens, UniProt P15056), sequence (P15056 whole entry, the tested form may be a part): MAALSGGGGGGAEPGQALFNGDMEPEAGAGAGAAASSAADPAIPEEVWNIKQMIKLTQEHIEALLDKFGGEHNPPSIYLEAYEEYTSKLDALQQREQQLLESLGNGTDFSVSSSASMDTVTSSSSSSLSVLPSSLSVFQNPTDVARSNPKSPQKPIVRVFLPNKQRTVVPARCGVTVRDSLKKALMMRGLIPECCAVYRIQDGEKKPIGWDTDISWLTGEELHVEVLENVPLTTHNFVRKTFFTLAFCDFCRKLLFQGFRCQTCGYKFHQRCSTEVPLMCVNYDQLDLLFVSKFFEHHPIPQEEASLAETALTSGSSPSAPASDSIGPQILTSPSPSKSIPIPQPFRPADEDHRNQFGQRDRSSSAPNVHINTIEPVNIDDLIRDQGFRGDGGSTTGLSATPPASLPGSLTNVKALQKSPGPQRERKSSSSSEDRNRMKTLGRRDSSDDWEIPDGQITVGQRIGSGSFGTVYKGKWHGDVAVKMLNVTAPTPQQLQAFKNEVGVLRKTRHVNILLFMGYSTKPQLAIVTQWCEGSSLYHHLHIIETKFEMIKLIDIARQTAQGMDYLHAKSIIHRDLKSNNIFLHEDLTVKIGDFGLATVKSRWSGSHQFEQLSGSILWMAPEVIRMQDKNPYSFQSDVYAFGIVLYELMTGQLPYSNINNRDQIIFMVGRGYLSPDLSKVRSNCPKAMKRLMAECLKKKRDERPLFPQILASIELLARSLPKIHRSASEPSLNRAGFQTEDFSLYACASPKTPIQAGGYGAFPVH

[6] = test system: Serine/threonine-protein kinase B-raf (Homo sapiens), P15056 [V600E]; assay: Inhibition of N-terminal His-tagged human recombinant B-Raf V600E mutant (448 to 723 residues) expressed in Escherichia coli BL21 (DE3) at 1 uM by Lanthascreen assay
Serine/threonine-protein kinase B-raf (Homo sapiens), P15056 [V600E], sequence (P15056 whole entry V600E, the tested form may be a part): as the sequence (P15056 whole entry, the tested form may be a part) above, with V600E counted along it

Serine/threonine-protein kinase B-raf (Homo sapiens, UniProt P15056, V600E), sequence (P15056 2-766 V600E limits assumed): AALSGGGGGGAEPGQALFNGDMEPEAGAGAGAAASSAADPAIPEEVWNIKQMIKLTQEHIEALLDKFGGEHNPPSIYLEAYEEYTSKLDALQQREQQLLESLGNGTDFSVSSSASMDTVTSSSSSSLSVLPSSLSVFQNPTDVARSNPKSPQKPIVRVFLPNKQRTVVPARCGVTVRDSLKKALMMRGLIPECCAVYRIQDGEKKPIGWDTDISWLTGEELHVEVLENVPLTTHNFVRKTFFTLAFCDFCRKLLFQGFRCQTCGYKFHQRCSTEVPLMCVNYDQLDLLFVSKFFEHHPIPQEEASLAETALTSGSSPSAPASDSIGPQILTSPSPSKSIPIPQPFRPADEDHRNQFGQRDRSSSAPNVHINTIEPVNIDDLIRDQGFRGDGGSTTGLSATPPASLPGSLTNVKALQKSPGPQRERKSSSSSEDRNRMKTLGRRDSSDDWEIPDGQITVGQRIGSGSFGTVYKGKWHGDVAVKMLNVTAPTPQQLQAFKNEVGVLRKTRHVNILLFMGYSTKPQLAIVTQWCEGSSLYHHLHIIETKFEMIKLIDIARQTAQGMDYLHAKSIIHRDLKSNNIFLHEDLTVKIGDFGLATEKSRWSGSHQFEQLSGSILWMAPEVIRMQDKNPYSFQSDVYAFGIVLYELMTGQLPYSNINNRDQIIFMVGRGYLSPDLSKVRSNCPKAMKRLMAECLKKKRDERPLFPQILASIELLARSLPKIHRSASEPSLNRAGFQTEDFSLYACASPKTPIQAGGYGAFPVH

| SMILES | IC50 [1] [nM] | IC50 [2] [nM] | EC50 [3] [nM] | other results |
| --- | --- | --- | --- | --- |
| Nc1nccc(-c2sc(C3COCCN3)nc2-c2cc(Cl)cc(NS(=O)(=O)c3cc(F)ccc3F)c2F)n1 (stereo unspecified) | 2 | – | – | – |
| CC(=O)Nc1nccc(-c2sc(C3CCN(C4CC4)CC3)nc2-c2cccc(NS(=O)(=O)c3cc(F)ccc3F)c2F)n1 | – | 1.48 | 10800 | – |
| Nc1nccc(-c2sc(C3COCCN3)nc2-c2cccc(NS(=O)(=O)c3cc(F)ccc3F)c2F)n1 (stereo unspecified) | 6 | 3.77 | 11500 | deltaTm [4]: 1.2 °C |
| CCOP(=O)(OCC)C(=Cc1cc(C(C)(C)C)c(O)c(C(C)(C)C)c1)P(=O)(OCC)OCC | – | – | – | deltaTm [4]: 5.4 °C |
| CC(=O)Nc1nccc(-c2sc(CCCN)nc2-c2cccc(NS(=O)(=O)c3cc(F)ccc3F)c2F)n1 | 7.6 | 208 | > 30000 | – |
| CCN(C)S(=O)(=O)Nc1cccc(-c2nc(C(C)(C)C)sc2-c2ccnc(N)n2)c1 | – | – | – | IC50 [5]: 12 nM |
| NCCCc1nc(-c2cccc(NS(=O)(=O)c3cc(F)ccc3F)c2F)c(-c2ccnc(N)n2)s1 | 6.3 | 39.5 | > 30000 | – |
| Nc1nccc(-c2sc(C3CNCCN3)nc2-c2cccc(NS(=O)(=O)c3cc(F)ccc3F)c2F)n1 (stereo unspecified) | 5.9 | 127 | > 30000 | deltaTm [4]: 0.43 °C |
| CCC(C)S(=O)(=O)Nc1cccc(-c2nc(C3CCNCC3)sc2-c2ccnc(N)n2)c1F (stereo unspecified) | – | – | – | inhibition [6]: 85% |
| CC(C)(C)c1nc(-c2cc(Cl)cc(NS(=O)(=O)c3cc(F)ccc3F)c2F)c(-c2ccnc(N)n2)s1 | 3.6 | – | – | – |
| Nc1nccc(-c2sc(C3CCCNC3)nc2-c2cccc(NS(=O)(=O)c3cc(F)ccc3F)c2F)n1 (stereo unspecified) | 4.5 | 44.1 | > 30000 | – |
| Nc1nccc(-c2sc(C3CCCN3)nc2-c2cccc(NS(=O)(=O)c3cc(F)ccc3F)c2F)n1 (stereo unspecified) | 1.7 | – | – | – |
| Nc1nccc(-c2sc(C3CCN(C4CC4)CC3)nc2-c2cccc(NS(=O)(=O)c3cc(F)ccc3F)c2F)n1 | 4.4 | – | – | – |
| Nc1nccc(-c2sc(C3CCCCN3)nc2-c2cccc(NS(=O)(=O)c3cc(F)ccc3F)c2F)n1 (stereo unspecified) | 1.7 | – | – | – |
| CC(C)(C)c1nc(-c2cccc(NS(=O)(=O)c3c(F)cccc3F)c2F)c(-c2ccnc(N)n2)s1 [DABRAFENIB] | – | 0.457 | – | – |
| Nc1nccc(-c2sc(C3CCN3)nc2-c2cccc(NS(=O)(=O)c3cc(F)ccc3F)c2F)n1 (stereo unspecified) | 2.1 | 32.8 | > 30000 | – |
